Measurements reported in ChEMBL document CHEMBL1157662, “Antimalarial and antileishmanial activities of histone deacetylase inhibitors with triazole-linked cap group” (Bioorg Med Chem, 2010).
Converted amounts (≈) assume the structure as drawn. The source made the active and inactive calls. The calls are words filed in the database; no cut-off is given here.

Columns and labels:
Leishmania donovani [1] = assay: Antileishmanial activity against Leishmania donovani promastigotes after 72 hrs by alamar blue assay; assay type: functional, organism-based
Plasmodium falciparum [2] = assay: microbe, parasite or virus in culture; assay type: functional, organism-based, W2, Vero; details: Plasmodium falciparum, W2, Vero, 72 h; read-out: IC50
Description: Antimalarial activity against chloroquine-resistant Plasmodium falciparum W2 infected in African green monkey (Cercopithecus aethiops) Vero cells assessed as parasite LDH activity after 72 hrs by Malstat reagent method

Vero = assay: Cytotoxicity against african green monkey Vero cells after 1 to 2 days by neutral red assay; assay type: ADME, cell-based, Chlorocebus sabaeus
[3] = Selectivity index, ratio of IC50 for african green monkey (Cercopithecus aethiops) Vero cells to IC50 for chloroquine-sensitive Plasmodium falciparum D6
[4] = Selectivity index, ratio of IC50 for african green monkey (Cercopithecus aethiops) Vero cells to IC50 for chloroquine-resistant Plasmodium falciparum W2
Plasmodium falciparum [5] = assay: microbe, parasite or virus in culture; details: D6, Vero, 72 h
Description: Antimalarial activity against chloroquine-sensitive Plasmodium falciparum D6 infected in African green monkey (Cercopithecus aethiops) Vero cells assessed as parasite LDH activity after 72 hrs by Malstat reagent method

Histone deacetylase = assay: Inhibition of HDAC in human HeLa cell nuclear extracts after 15 mins by fluorescence assay; assay type: cell-based
Leishmania donovani [6] = assay: Ratio of suberoylanilide hydroxamic acid IC50 to compound IC50 for Leishmania donovani promastigotes; assay type: functional
Leishmania donovani [7] = assay: Ratio of suberoylanilide hydroxamic acid IC50 to compound IC50 for Leishmania donovani promastigotes
Leishmania donovani [8] = system: Leishmania donovani
[9] = Leishmania donovani, 72 h, read-out: IC50
[10] = Chlorocebus sabaeus, Vero, read-out: IC50

| Structure (SMILES) | IC90 (Leishmania donovani [1]; Leishmania donovani, 72 h) [µg/mL] | IC50 (Leishmania donovani [1]; [9]) [µg/mL] | IC50 (Plasmodium falciparum [2]) [µg/mL] | IC50 (Vero; vero) | selectivity ratio [3] | selectivity ratio [4] | IC50 (Plasmodium falciparum [5]) [µg/mL] | IC50 (Histone deacetylase) [nM] | IC50 (Vero; [10]) [µg/mL] | Ratio (Leishmania donovani [6]) | IC50 ratio (Leishmania donovani [7]) | IC50 (Leishmania donovani [1]) | IC90 (Leishmania donovani [8]) |
| --- | --- | --- | --- | --- | --- | --- | --- | --- | --- | --- | --- | --- | --- |
| O=C(CCCCCn1cc(-c2ccncc2)nn1)NO | > 40 | 17.8 (≈ 64.5 µM) | 0.133 (≈ 0.481 µM) | Non-toxic | > 24.4 | > 35.9 | 0.195 (≈ 0.708 µM) |  |  |  |  |  |  |
| Cc1ccccc1-c1cn(CCCCCCC(=O)NO)nn1 | 40 (≈ 132 µM) | 26 (≈ 86 µM) | 0.14 (≈ 0.463 µM) |  | 5.9 | 5.1 | 0.12 (≈ 0.397 µM) | 2.8 | 0.71 (≈ 2.35 µM) |  |  |  |  |
| O=C(CCCCCn1cc(-c2cccnc2)nn1)NO | > 40 | 11.4 (≈ 41.6 µM) | 0.205 (≈ 0.745 µM) | Non-toxic | > 27.2 | > 23.2 | 0.175 (≈ 0.636 µM) |  |  |  |  |  |  |
| Cc1cccc(-c2cn(CCCCCC(=O)NO)nn2)c1 | > 40 | 17 (≈ 59 µM) | 0.068 (≈ 0.236 µM) |  | 34 | 39.7 | 0.0795 (≈ 0.276 µM) |  | 2.7 (≈ 9.36 µM) |  |  |  |  |
| COc1ccccc1-c1cn(CCCCCC(=O)NO)nn1 | > 40 | 18.8 (≈ 61.6 µM) | 0.0975 (≈ 0.32 µM) |  | 15.3 | 23.6 | 0.15 (≈ 0.493 µM) |  | 2.3 (≈ 7.56 µM) |  |  |  |  |
| O=C(CCCCCCn1cc(-c2ccccn2)nn1)NO | 40 (≈ 138 µM) | 5.75 (≈ 19.9 µM) | 0.04 (≈ 0.138 µM) |  | 13.8 | 23.8 | 0.069 (≈ 0.238 µM) |  | 0.95 (≈ 3.28 µM) | 2 | 2 |  |  |
| COc1ccc2cc(-c3cn(CCCCCCCC(=O)NO)nn3)ccc2c1 |  |  | 0.165 (≈ 0.431 µM) |  | 5.8 | 3.9 | 0.112 (≈ 0.293 µM) | 226.1 | 0.65 (≈ 1.7 µM) |  |  | Not Active | inactive |
| O=C(CCCCCn1cc(-c2ccccc2)nn1)NO | > 40 | 17.5 (≈ 63.8 µM) | 0.13 (≈ 0.474 µM) |  | 44.9 | 30.4 | 0.088 (≈ 0.321 µM) |  | 3.95 (≈ 14.4 µM) |  |  |  |  |
| O=C(CCCCCn1cc(-c2ccc(-c3ccncc3)cc2)nn1)NO | > 40 | 28 (≈ 79.7 µM) | 0.0475 (≈ 0.135 µM) | Non-toxic | > 105 | > 100 | 0.0455 (≈ 0.129 µM) |  |  |  |  |  |  |
| O=C(CCCCCn1cc(-c2cccc(-c3ccccc3)c2)nn1)NO | 32.5 (≈ 92.7 µM) | 11.2 (≈ 32.1 µM) | 0.026 (≈ 0.0742 µM) | Non-toxic | > 127 | > 183 | 0.0375 (≈ 0.107 µM) |  |  | 2 | 2 |  |  |
| O=C(CCCCCCCCn1cc(-c2ccccc2)nn1)NO | > 40 | 18.5 (≈ 58.5 µM) | 2.75 (≈ 8.69 µM) |  | 1.9 | 1.2 | 2.65 (≈ 8.38 µM) | 55.4 | 3.35 (≈ 10.6 µM) |  |  |  |  |
| O=C(CCCCCCn1cc(-c2cccc(-c3ccccc3)c2)nn1)NO | > 40 | 20.5 (≈ 56.2 µM) | 0.025 (≈ 0.0686 µM) | Non-toxic | > 190 | > 190 | 0.025 (≈ 0.0686 µM) |  |  |  |  |  |  |
| CN(C)c1ccc(-c2cn(CCCCCCC(=O)NO)nn2)cc1 | 36 (≈ 109 µM) | 5.35 (≈ 16.1 µM) | 0.032 (≈ 0.0966 µM) |  | 31.2 | 23.9 | 0.0245 (≈ 0.0739 µM) |  | 0.765 (≈ 2.31 µM) | 2 | 2 |  |  |
| O=C(CCCCCn1cc(-c2cccs2)nn1)NO | > 40 | 11.5 (≈ 41 µM) | 0.0365 (≈ 0.13 µM) | Non-toxic | > 103 | > 130 | 0.046 (≈ 0.164 µM) |  |  | 2 | 2 |  |  |
| O=C(CCCCCn1cc(-c2ccccc2-c2ccccc2)nn1)NO | 38 (≈ 108 µM) | 13 (≈ 37.1 µM) | 2.6 (≈ 7.42 µM) |  | 1.3 | 1 | 2.1 (≈ 5.99 µM) |  | 2.7 (≈ 7.7 µM) |  |  |  |  |
| CN(C)c1ccc(-c2cn(CCCCCCCC(=O)NO)nn2)cc1 | > 40 | 24 (≈ 69.5 µM) | 0.185 (≈ 0.536 µM) |  | 3.8 | 3.6 | 0.175 (≈ 0.507 µM) | 15.9 | 0.97 (≈ 2.81 µM) |  |  |  |  |
| O=C(CCCCCCn1cc(-c2ccc(-c3ccncc3)cc2)nn1)NO |  |  | 1.25 (≈ 3.42 µM) | Non-toxic | > 4.1 | > 3.8 | 1.15 (≈ 3.15 µM) |  |  |  |  | Not Active | inactive |
| O=C(CCCCCCCn1cc(-c2ccc(-c3ccncc3)cc2)nn1)NO |  |  | 0.128 (≈ 0.336 µM) |  | 43.5 | 30.2 | 0.0885 (≈ 0.233 µM) | 212.9 | 3.85 (≈ 10.1 µM) |  |  | Not Active | inactive |
| O=C(CCCCn1cc(-c2ccccc2)nn1)NO |  |  | 0.12 (≈ 0.461 µM) | Non-toxic | > 38.1 | > 39.6 | 0.125 (≈ 0.48 µM) |  |  |  |  | Not Active | inactive |
